What was measured:
hESCs (H9) = test: Hemato-endothelial differentiation of hESCs, flow cytometry, fold change vs DMSO (Example 2); assay type: cell-based, human
Method: FIG. 7A. Schema of hESC differentiation into early hemato-endothelial cells as spin-embryoid bodies (spin-EBs). hESCs are made into spin-EBs at Day 0 and conditioned into mesoderm lineages for 6 days using defined cytokines (Stage 1). At Day 6, spin-EBs are transferred into hemato-endothelial culture media (Stage 2) to promote endothelial and hematopoietic cell differentiation. For these studies, cells are treated with either 1 μM SR-1, 10 nM TCDD, or DMSO vehicle control beginning at Day 6+0 with media exchanges and/or harvesting performed at Day 6+3, Day 6+6, and Day 6+9. FIG. 7B. Representative flow cytometry plots of one hESCs differentiation. Both adherent and non-adherent cell fractions are harvested at Day 6+3, Day 6+6, and Day 6+9 and assessed for endothelial cell (CD34^+CD31^+, CD34^+CD144^+) and hematopoietic progenitor cell (CD34^+CD43^+, CD34^+CD45^+) phenotypes. FIG. 7C. Fold change of the total percentage of each hemato-endothelial phenotype for SR-1 and TCDD treated hESCs normalized to matched DMSO treated controls. n=4-6, error bars represent SEM, *p<0.05 as compared to DMSO treated controls by student's t-test. N/A: Not applicable due to absence appreciable of CD34^+CD45^+ populations at Day 6+3 time point.
Single-cell adapted hESCs (H9) were maintained on irradiated mouse embryonic fibroblasts (MEF) in ES growth media, as previously described in Ferrell et al. Stem Cells. 2015; 33(4):1130-41. hESCs were allowed to differentiate as spin-embryoid bodies (EBs) as previously described in Ferrell et al. and Ng et al. Nat. Protoc. 2008; 3(5):768-776 (FIG. 7A). In brief, hESCs were plated at 3,000 cells/100 μL in a round-bottom 96-well plate using serum-free BPEL media supplemented with 20 ng/mL BMP4, 40 ng/mL SCF, and 20 ng/mL VEGF (all R&D Systems, Minneapolis, Minn.). Cells were centrifuged to form embryoid bodies (defined as Day 0) and were incubated for 6 additional days (defined as Day 6) to promote mesoderm induction. To differentiate early endothelial and hematopoietic progenitor cells, Day 6 EBs were transferred to pre-gelatinized 24-well plates (approx. 8-16 EBs/well) with BEL media supplemented with 40 ng/mL SCF, 40 ng/mL VEGF, […] thrombopoietin (all R&D Systems, Minneapolis, Minn.), 30 ng/mL IL-3, and 30 ng/mL IL-6 (both PeproTech, Rocky Hill, N.J.). To modulate AHR activity, EBs were treated at Day 6+0 with DMSO, 1 μM SR-1 (Cellagen Technologies, San Diego, Calif.), or 10 nM 2,3,7,8-tetrachlorodibenzo-p-dioxin (TCDD) (Sigma-Aldrich, St. Louis, Mo.). Media was exchanged every 3 days with small molecule and cytokine supplementation. At indicated time points, non-adherent cell fractions were collected and saved while the remaining adherent fractions were treated with 0.05% trypsin containing 2% chicken serum. Adherent cells were combined with the non-adherent fractions for analysis, unless otherwise stated.
The following additional antibodies were used (all anti-human): LFA-1 (CD11a/CD18)-APC-R700 (BD Biosciences), CD31-APC (eBioscience), CD33-APC (BD Biosciences), CD34-PECy7 (BD Biosciences), CD34-APC (BD Biosciences), CD41a-APC (BD Biosciences), CD43-APC (BD Biosciences), CD45-APC (BD Biosciences), CD56-PECy7 (BD Biosciences), CD56-BV421 (BD Biosciences), CD94-PerCP-Cy5.5 (BD Biosciences), CD117-PECy7 (BD Biosciences), CD117-APC (eBiosciences), CD144-APC (eBioscience). Samples were analyzed on either an LSRFortessa or LSRII flow cytometer (BD Biosciences). Gating was set relative to isotype controls of identical fluorophores. Data from flow cytometry was analyzed using FlowJo software (Treestar, Ashland, Oreg.).

H9 hESCs = test: NK cell differentiation from hESCs, flow cytometry (Example 1); assay type: cell-based, human; conditions: 1 μM SR-1 or 10 nM TCDD in NK cell differentiation conditions, n=2
Method: H9 hESCs were differentiated as spin EB exposed to Stage I mesodermal induction media for 11 days and transferred to NK-cell differentiation media with either DMSO, 1 μM SR-1, or 10 nM TCDD treatment for an additional 14 and 21 days. At the indicated time points, non-adherent cells were harvested and analyzed for NK-cell immunophenotype (CD56^+CD45^+) by flow cytometry. Representative flow cytometry plots are shown from two biologically independent experiments.
H9 hESCs were differentiated into NK cells as previously described (Ni et al. Embryonic Stem Cell Immunobiol. Methods Protoc. Methods Mol. Biol. 1029, 33-41 (2013)). In brief, H9 hESCs were aggregated as spin-EBs and differentiated in Stage I mesodermal induction media for 11 days, with one-half media change with fresh cytokines on Day 6. […]
Harvested cells were incubated with PE-Cy7 CD34 (BD Biosciences, San Jose, Calif.) in conjunction with APC CD31, APC CD41a, APC CD43, or APC CD45 for 30 minutes at 4° C. in FACS buffer (DPBS containing 2% fetal bovine serum and 0.1% sodium azide). […] Cells were analyzed using an LSRII flow cytometer (BD Biosciences) and data were analyzed using FlowJo software (TreeStart, Ashland, Oreg.).

SMILES | total percentage of CD34+CD31+ cells, fold vs DMSO controls (hESCs (H9); Day 6+3, 1 μM SR-1) | total percentage of CD34+CD144+ cells, fold vs DMSO controls (hESCs (H9); Day 6+3, 1 μM SR-1) | total percentage of CD34+CD31+ hemato-endothelial cells, fold vs DMSO controls (hESCs (H9); Day 6+6, 1 μM SR-1) | total percentage of CD34+CD43+ hematopoietic progenitor cells, fold vs DMSO controls (hESCs (H9); Day 6+6, 1 μM SR-1) | CD34+CD45+ hematopoietic progenitor cells, fold change normalized to DMSO (hESCs (H9); Day 6+9, 10 nM TCDD) | CD56+CD45+ NK cells (H9 hESCs) | total percent of CD34+CD31+ cells, fold change normalized to DMSO (hESCs (H9); Day 6+9, 10 nM TCDD) | total percent of CD34+CD43+ cells, fold change normalized to DMSO (hESCs (H9); Day 6+9, 10 nM TCDD) | total percent of CD34+CD144+ cells, fold change normalized to DMSO (hESCs (H9); Day 6+9, 10 nM TCDD) | total percent of CD34− hematopoietic cells (hESCs (H9); Day 6+9, 10 nM TCDD)
CC(C)n1cnc2c(NCCc3ccc(O)cc3)nc(-c3csc4ccccc34)nc21 [SR-1, StemReginin-1] | 1.58±0.28 fold | 1.71±0.22 fold | 1.62±0.12 fold | 1.36±0.12 fold | 1.40±0.11 | 26.4% | – | – | – | –
Clc1cc2c(cc1Cl)Oc1cc(Cl)c(Cl)cc1O2 [TCDD, 2,3,7,8-tetrachlorodibenzo-p-dioxin] | – | – | – | – | 0.44±0.06 | 6.7% | 0.49±0.06 | 0.67±0.09 | 0.33±0.13 | increase

— patent US20170121683A1, “ARYL HYDROCARBON RECEPTOR DISRUPTION AND ENHANCEMENT” (priority 2015, published 2017)
